Series [1] in a line: pharmacokinetics in blood plasma after oral administration in Wistar rats. To be noted: rat, in vivo. The protocol:
At the first stage, pharmacokinetics of the Compound 1 free base was studied after oral administration in Wistar rats at dosage of 30 mg/kg.
Pharmacokinetics of several Compound 1 salt forms was studied after oral administration in Wistar rats at a dose of 37 mg/kg (30 mg/kg equivalent to a free base).

A short description of series [2]: distribution across organs and tissues in rats. The format is in vivo. The protocol: When the 4-methylbenzenesulfonic acid and Compound 1 salt hydrate is administered intragastrically at dosages 30 to 200 mg/kg, the Compound 1 concentration in rat blood plasma increases in proportion to the dose. High concentrations of the Compound 1 was found almost in all the tissues studied and reached maximum at 2 to 4 hours after 4-methylbenzenesulfonic acid and Compound 1 salt hydrate administration.

A short description of series [3]: pharmacokinetics in rabbits at single administration. The format is in vivo. To be noted: 50 mg/kg.
The next series relates to mature human osteoclasts. As to the kind of experiment: osteoclast-mediated resorption of mineralized matrix. It counts as cell-based. To be noted: 1.1 μM and 10 μM, 48 hours. The protocol: The study was carried out following the method below: CD15+ monocytes (osteoclast precursor cells) were cultivated for 3 days in a proliferation medium (Igla α-modified minimum essential medium/fetal calf serum (aMEM/FCS), 10% with 25 ng/ml of macrophage colony-stimulating factor (M-CSF)). During this stage M-CSF promoted proliferation and expression of a receptor activator of nuclear factor KB (RANK, cappa-B, type I membrane protein). The proliferation medium was removed and cells were differentiated in a differentiation medium (aMEM/FCS-10% with 100 ng/ml of RANKL and 25 ng/ml of M-CSF). When mature osteoclasts were detected in the culture (day 4 of the study), the cells were collected and re-inoculated into a 96-well plate coated with a synthetic mineralized matrix. Cultivation continued for 48 hours (at presence of the studied compounds) to evaluate osteoclast resorption. Then number of mature osteoclasts and the resorption degree were evaluated. An effect of 4-methylbenzenesulfonic acid and Compound 1 salt concentration on concentration and resorption degree of mature osteoclasts was evaluated in comparison with control samples ([…] control, 0.3% DMSO solvent) and reference inhibitors, i.e., saracatinib and bosutinib (see FIG. 18).

The test system of series [4] is Sprague-Dawley rat models of osteoarthritis induced by intra-articular introduction of sodium iodoacetate. As to the kind of experiment: mechanical allodynia test with von Frey filaments in osteoarthritis induced by sodium iodoacetate. The format is in vivo. The protocol: The intra-articular introduction of aerobic glycolysis inhibitor (sodium iodoacetate) results in death of chondrocytes and acute inflammatory reaction in a synovial cavity. In absence of treatment, at day 10 from the pathology induction an onset of chronic pain is observed due to cartilage destruction and development of chronic inflammation in particular cases [J Musculoskel Neuron Interact 2001; 1(4):363-376]. Extent of osteoarthritis development in rats was evaluated by comparison of extremity pain sensitivity threshold after the introduction of sodium iodoacetate versus background measurements taken before the pathology induction. The threshold of the pain sensitivity was evaluated by mechanical allodynia test using von Frey filaments (see Table 8).
For the purposes of the study, rat males weighing 150 to 200 g were selected. All the animals underwent acclimatization for 14 days. The animals were housed in a polycarbonate cages of 3H type manufactured by Charles River laboratories Inc according to COST R 53434-2009. 12-hours lighting regimen was maintained. The animals had access to food and water ad libitum. The pathology was induced by introduction of 50 μl solution containing 2 mg of sodium iodoacetate into a synovial cavity of the animal knee joints. Tactile allodynia induced by a mechanical irritation was evaluated using von Frey filaments weighing 0.06 to 23.96 g. The test was repeated five times for each filament at intervals of 1 to 2 s. The sensitivity threshold was considered as a minimum reaction threshold provoking paw withdrawal in one of five repeats.

A short description of series [5]: pharmacokinetics in blood plasma after oral administration in Wistar rats. Conditions: rat, in vivo, 21 mg/kg.
For series [6], the target named is human recombinant tyrosine c-Src kinase (Homo sapiens, UniProt P12931). As to the kind of experiment: human kinase enzymatic activity in vitro (33P-ATP, peptide substrate). It counts as biochemical. The protocol:
(§1) The Compound 1 effect on the human recombinant tyrosine c-Src kinase was measured as follows: a peptide substrate was dissolved in a reaction buffer ad 0.2 mg/ml concentration. A solution of recombinant c-Src kinase was added to 2 nM concentration and the studied compound to the required concentration (within the range of 1 nM to 10 μM) was added. A solution of ^33P-ATP was added to 10 μM concentration (final specific activity of the solution is 0.01 μCi). After 120 minutes of incubation, the reaction mixture was applied on ion-exchange paper, which was rinsed with a plenty of phosphoric acid. A reaction extent was determined based on radioactivity of the reaction products.

The target of another series is Syk kinase (Homo sapiens, UniProt P43405). As to the kind of experiment: human kinase enzymatic activity in vitro. The format is biochemical.
The next series deals with Blk (Homo sapiens, UniProt P51451). Briefly: human kinase enzymatic activity in vitro. The format is biochemical. To be noted: 0.5 μmol/l.
Blk, sequence (P51451 whole entry): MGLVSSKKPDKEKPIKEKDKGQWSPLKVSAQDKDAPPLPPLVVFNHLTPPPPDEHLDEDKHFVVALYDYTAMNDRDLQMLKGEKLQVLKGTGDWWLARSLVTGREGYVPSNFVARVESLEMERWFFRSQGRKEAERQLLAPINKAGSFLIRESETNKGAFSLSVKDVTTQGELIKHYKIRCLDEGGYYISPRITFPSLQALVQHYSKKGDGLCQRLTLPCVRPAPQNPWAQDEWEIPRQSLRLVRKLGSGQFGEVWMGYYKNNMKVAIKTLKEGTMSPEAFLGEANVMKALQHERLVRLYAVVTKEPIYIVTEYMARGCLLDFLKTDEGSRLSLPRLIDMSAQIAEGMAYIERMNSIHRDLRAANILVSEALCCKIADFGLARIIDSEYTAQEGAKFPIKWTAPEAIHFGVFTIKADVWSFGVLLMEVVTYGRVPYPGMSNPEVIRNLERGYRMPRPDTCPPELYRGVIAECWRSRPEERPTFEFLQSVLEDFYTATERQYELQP
The next series has as its target Fgr (Homo sapiens, UniProt P09769). As to the kind of experiment: human kinase enzymatic activity in vitro. It counts as biochemical. To be noted: 0.5 μmol/l.
A further series addresses Frk (Homo sapiens, UniProt P42685). Briefly: human kinase enzymatic activity in vitro. The format is biochemical. Conditions: 0.5 μmol/l.
In a further series the target is Fyn (Homo sapiens, UniProt P06241). As to the kind of experiment: human kinase enzymatic activity in vitro. To be noted: 0.5 μmol/l. The format is biochemical.
Fyn, sequence (P06241 whole entry): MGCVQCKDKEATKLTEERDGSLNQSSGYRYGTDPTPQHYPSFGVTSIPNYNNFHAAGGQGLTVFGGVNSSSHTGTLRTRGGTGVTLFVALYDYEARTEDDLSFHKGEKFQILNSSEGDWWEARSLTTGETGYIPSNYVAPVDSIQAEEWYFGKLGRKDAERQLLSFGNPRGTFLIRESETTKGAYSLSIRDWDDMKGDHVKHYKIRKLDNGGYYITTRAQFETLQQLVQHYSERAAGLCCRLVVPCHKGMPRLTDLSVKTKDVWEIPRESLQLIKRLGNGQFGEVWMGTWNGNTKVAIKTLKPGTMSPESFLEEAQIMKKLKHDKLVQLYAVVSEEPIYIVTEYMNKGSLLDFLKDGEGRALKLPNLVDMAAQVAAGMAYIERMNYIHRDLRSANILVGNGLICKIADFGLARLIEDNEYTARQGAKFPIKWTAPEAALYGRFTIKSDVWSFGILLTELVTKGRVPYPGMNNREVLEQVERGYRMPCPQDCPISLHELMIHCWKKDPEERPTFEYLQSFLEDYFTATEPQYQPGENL
The target of a further series is Hck (Homo sapiens, UniProt P08631). Briefly: human kinase enzymatic activity in vitro. It counts as biochemical. Conditions: 0.5 μmol/l.
Hck, sequence (P08631 whole entry): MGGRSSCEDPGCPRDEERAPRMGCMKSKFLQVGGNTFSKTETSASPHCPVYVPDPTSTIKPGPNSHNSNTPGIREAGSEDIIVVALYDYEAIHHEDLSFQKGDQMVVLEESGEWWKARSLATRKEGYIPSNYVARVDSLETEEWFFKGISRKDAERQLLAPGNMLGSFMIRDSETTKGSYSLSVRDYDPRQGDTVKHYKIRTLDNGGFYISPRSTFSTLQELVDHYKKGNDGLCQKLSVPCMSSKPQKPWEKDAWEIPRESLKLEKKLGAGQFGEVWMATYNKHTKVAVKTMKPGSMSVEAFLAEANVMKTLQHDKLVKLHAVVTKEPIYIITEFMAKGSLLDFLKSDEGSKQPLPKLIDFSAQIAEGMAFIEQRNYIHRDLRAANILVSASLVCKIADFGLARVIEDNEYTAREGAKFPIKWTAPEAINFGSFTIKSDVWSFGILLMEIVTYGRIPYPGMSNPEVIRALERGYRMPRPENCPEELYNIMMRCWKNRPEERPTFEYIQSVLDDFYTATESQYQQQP
In a further series the target is Lck (Homo sapiens, UniProt P06239). As to the kind of experiment: human kinase enzymatic activity in vitro. The format is biochemical. To be noted: 0.5 μmol/l.
Lck, sequence (P06239 whole entry): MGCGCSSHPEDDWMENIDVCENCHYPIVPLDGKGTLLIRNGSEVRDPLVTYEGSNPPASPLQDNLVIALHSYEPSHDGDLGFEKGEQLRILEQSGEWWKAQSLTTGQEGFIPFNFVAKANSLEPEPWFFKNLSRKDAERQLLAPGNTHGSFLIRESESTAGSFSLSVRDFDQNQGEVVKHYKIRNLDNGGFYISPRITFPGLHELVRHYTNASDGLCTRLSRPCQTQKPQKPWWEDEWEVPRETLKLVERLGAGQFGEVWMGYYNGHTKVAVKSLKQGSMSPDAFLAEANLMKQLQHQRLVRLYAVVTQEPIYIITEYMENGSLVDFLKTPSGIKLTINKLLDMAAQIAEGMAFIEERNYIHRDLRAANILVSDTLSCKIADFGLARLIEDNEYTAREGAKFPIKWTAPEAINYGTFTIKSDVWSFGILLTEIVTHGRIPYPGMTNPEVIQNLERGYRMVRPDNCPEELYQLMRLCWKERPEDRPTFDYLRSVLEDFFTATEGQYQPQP
In the next series the target is Lyn (Homo sapiens, UniProt P07948). As to the kind of experiment: human kinase enzymatic activity in vitro. It counts as biochemical. Conditions: 0.5 μmol/l.
Lyn, sequence (P07948 whole entry): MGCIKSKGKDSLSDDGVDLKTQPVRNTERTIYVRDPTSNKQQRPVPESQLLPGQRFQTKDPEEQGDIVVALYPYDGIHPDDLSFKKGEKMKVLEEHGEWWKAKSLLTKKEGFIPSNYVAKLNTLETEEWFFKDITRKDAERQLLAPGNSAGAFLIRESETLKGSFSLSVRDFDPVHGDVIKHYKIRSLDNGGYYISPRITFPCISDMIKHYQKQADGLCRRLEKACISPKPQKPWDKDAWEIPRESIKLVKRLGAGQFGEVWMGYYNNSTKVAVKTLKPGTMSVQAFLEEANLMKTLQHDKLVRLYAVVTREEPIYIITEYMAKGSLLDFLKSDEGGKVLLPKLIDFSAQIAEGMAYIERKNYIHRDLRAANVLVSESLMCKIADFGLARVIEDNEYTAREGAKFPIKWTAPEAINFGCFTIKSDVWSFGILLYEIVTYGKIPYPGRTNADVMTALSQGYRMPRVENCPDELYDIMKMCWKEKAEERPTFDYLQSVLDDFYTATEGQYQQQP
A further series addresses Yes (Homo sapiens, UniProt P07947). Briefly: human kinase enzymatic activity in vitro. The format is biochemical. Conditions: 0.5 μmol/l.
Another series has as its system Src-kinase family. As to the kind of experiment: human kinase enzymatic activity in vitro. The format is biochemical. Conditions: 0.5 μmol/l. The protocol:
as §1

Series [7] relates to chondrocytes from knee joint cartilage of young rats. Briefly: IL-1β-induced hypertrophic changes in chondrocytes (aggrecan expression). It counts as cell-based, rats (Sprague Dawley). To be noted: induced hypertrophic changes in chondrocytes. The protocol:
The study was carried out following the method below: chondrocytes were isolated from a knee joint cartilage of young rats (aged 3 weeks, Sprague Dawley line). The isolated chondrocytes in a cultural medium (Dulbecco's modified Igla minimum essential medium/fetal calf serum (DMEM/FCS), 10%, 4-(2-hydroxyethyl)-1-piperazine ethanesulfonic acid (HEPES), 25 mM) was stored frozen at −80° C. The obtained chondrocytes were unfrozen a day before the experiment, inoculated into 12-well plates and cultured as a monolayer during 24 hours. After 24 hours of incubation IL-1β-induced activation of chondrocytes and treatment with the studied compounds was started and continued for 3 days.

For orientation: Cmax means the maximum level reached in the sampled fluid or tissue. In general, IC50 refers to the concentration needed to halve the response being measured. What is called inhibition is the drop in the measured response relative to a control, in per cent.

human recombinant tyrosine c-Src kinase, sequence (P12931 whole entry): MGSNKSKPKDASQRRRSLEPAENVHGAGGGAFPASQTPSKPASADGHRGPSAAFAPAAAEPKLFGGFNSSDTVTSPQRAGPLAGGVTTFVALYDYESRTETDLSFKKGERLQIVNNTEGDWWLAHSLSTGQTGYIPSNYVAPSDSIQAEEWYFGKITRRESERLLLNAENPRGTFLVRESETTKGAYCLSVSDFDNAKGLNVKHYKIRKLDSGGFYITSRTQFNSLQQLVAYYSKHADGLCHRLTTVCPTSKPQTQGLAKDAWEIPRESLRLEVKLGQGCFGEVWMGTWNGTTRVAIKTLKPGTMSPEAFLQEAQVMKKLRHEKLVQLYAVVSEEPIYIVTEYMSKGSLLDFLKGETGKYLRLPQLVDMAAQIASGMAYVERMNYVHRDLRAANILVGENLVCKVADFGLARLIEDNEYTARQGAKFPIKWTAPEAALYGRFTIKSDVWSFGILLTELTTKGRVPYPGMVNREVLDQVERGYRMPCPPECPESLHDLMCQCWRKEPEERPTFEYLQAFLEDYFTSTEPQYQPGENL
Yes, sequence (P07947 whole entry): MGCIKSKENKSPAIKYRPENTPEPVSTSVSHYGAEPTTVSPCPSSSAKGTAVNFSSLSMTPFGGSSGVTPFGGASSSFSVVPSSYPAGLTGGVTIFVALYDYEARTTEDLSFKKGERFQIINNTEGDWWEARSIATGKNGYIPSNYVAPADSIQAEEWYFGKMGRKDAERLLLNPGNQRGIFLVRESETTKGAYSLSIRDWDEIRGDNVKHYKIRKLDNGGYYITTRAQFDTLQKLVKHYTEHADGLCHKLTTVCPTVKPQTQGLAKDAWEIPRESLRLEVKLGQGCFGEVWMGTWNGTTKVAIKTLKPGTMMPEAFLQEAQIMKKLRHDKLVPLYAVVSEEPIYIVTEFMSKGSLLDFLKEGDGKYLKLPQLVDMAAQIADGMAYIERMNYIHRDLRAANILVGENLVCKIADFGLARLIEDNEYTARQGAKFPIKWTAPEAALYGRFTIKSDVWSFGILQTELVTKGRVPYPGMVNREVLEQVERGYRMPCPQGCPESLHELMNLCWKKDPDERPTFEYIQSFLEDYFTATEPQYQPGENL
Fgr, sequence (P09769 whole entry): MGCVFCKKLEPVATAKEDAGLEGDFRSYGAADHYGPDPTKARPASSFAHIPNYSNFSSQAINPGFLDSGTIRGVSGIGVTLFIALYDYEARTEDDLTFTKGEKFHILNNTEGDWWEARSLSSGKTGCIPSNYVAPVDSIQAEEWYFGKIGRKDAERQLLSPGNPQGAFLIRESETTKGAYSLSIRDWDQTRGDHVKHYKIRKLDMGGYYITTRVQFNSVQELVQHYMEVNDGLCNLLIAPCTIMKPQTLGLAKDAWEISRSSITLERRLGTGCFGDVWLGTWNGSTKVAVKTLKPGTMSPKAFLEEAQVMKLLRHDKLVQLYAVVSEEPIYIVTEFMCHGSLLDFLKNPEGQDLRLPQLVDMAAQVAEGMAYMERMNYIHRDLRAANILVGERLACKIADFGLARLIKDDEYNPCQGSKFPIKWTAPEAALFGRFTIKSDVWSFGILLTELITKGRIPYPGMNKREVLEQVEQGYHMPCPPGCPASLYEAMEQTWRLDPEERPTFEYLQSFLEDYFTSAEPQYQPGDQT
Frk, sequence (P42685 whole entry): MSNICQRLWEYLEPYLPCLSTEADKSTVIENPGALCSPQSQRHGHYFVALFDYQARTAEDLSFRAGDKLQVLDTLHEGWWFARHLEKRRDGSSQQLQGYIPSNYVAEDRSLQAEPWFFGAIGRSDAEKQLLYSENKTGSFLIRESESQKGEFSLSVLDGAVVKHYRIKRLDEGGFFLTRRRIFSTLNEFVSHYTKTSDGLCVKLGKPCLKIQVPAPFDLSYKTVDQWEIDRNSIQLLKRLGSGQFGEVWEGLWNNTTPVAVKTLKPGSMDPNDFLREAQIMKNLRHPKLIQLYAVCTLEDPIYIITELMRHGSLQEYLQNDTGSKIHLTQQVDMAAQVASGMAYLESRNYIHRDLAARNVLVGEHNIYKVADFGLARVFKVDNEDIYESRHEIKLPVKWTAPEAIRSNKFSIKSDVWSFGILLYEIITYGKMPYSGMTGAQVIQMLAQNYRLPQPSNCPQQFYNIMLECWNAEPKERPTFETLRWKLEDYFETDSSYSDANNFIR

For `COc1cc(Nc2ncnc(Nc3ccc4c(n3)NC(=O)C(C)(C)O4)n2)cc(OC)c1OC.Cc1ccc(S(=O)(=O)O)cc1.O` [monohydrate of 4-methylbenzenesulfonic acid and 2,2-dimethyl-6-((4-((3,4,5-trimethoxyphenyl)amino)-1,3,5-triazine-2-yl)amino)-2H-pyrido[3,2-b][1,4]oxazine-3(4H)-one base], the “time of reaching maximum concentration in blood” value in series [1] lay in the range of 1.1 to 1.3 h. Besides, in series [2], the “tissue with lowest concentration” value was “lowest concentration of the Compound 1 was registered in muscles”. The “daily average concentration in bone and cartilage tissues versus daily average concentration in blood plasma” value in [2] (intragastric) was “more than three times”. Besides, the elimination half-time entry in series [3] was “more than 7 hours”. Moreover, the “effect on osteoclast-mediated resorption of the mineralized matrix” value in the series on mature human osteoclasts is reported as “profound statistically significant inhibitory effect”. For the same compound, the “Reaction threshold value, % of control” value in series [4] (100 mg/kg intragastric, days 0-28 (daily), day 14 from pathology induction) was 106 % of control; in [4] (100 mg/kg intragastric, days 0-28 (daily), day 21) it was 80 % of control; in [4] (100 mg/kg intragastric, days 0-28 (daily), day 28), 106 % of control; in series [4] (100 mg/kg intragastric, days 7-28 (daily), day 14), 70 % of control; in series [4] (100 mg/kg intragastric, days 7-28 (daily), day 21), 75 % of control; in [4] (100 mg/kg intragastric, days 7-28 (daily), day 28) it was 73 % of control. For the same compound, the “Reaction threshold value, % of control” value in [4] (500 mg/kg intragastric, days 0-28 (daily), day 14) is 114 % of control; in [4] (500 mg/kg intragastric, days 0-28 (daily), day 21), 106 % of control; in series [4] (500 mg/kg intragastric, days 0-28 (daily), day 28) it was 107 % of control; in [4] (500 mg/kg intragastric, days 7-28 (daily), day 14) it was 76 % of control; in series [4] (500 mg/kg intragastric, days 7-28 (daily), day 21) it was 91 % of control; in series [4] (500 mg/kg intragastric, days 7-28 (daily), day 28), 118 % of control. For the same compound, the mechanical allodynia onset result in series [4] (100 and 500 mg/kg from day of pathology induction, 500 mg/kg from the seventh day) is “Total arrest of mechanical allodynia onset”. Further, the maximum concentration (Cmax) in series [5] is 416 ng/mL.
As for `COc1cc(Nc2ncnc(Nc3ccc4c(n3)NC(=O)C(C)(C)O4)n2)cc(OC)c1OC.Cc1ccc(S(=O)(=O)O)cc1` [salt of 4-methylbenzenesulfonic acid and 2,2-dimethyl-6-((4-((3,4,5-trimethoxyphenyl)amino)-1,3,5-triazine-2-yl)amino)-2H-pyrido[3,2-b][1,4]oxazine-3(4H)-one base], the concentration for half-maximal inhibition (IC50) in series [6] was 14 nM; against Syk kinase it was 40 nM. The inhibition at 0.5 µM (in [6] (0.5 μmol/l); at Syk kinase (0.5 μmol/l); on Blk; on Fgr; at Frk; against Fyn) was over 50% each time. In addition, the inhibition at 0.5 µM against Hck, at Lck, against Lyn and on Yes was over 50% throughout. Moreover, the remaining activity at 0.5 µM was 6% in series [6] (0.5 μmol/l, read-out: residual activity); 20% on Blk (read-out: residual activity); 23% at Fgr (read-out: residual activity); 25% on Fyn (read-out: residual activity); 25% at Hck (read-out: residual activity); 12% at Lck (read-out: residual activity). For the same compound, the figures for the remaining activity at 0.5 µM at Lyn (read-out: residual activity) and on Yes (read-out: residual activity) were 13% and 12%, respectively. The “residual Src-kinase family activity” value in the series on Src-kinase family is given as ≤ 25 % of control values. Moreover, the “increase of aggrecan production” value in series [7] is “more than four-time increase”.

The values are drawn from patent publication US10745414B2, “Crystal salt form of 2,2-dimethyl-6-((4-((3,4,5-trimethoxyphenyl)amino)-1,3,5-triazine-2-yl)amino)-2H-pyrido[3,2-b][1,4]oxazine-3(4H)-one for human use” (LIMITED “MOLECULAR TECHNOLOGIES”, priority 2016, dated 2020).
